Experimental data published in US20250296959A1, “B7-H3 TARGETING PEPTIDES AND CONSTRUCTS THEREOF” (Mariana Oncology Inc., priority 2024, published 2025).
Starred links: 1 amine or outer side, 2 acyl side, 3 side chain; linkers in the order of their positions; H or OH if unused. Positions of bridges follow the written chain, without caps; N, C: chain ends. Non-standard residues stand in square brackets, D forms with d. Residues, ends and D or L forms follow the SMILES beside them. *: point of attachment. Ala(piperidin-4-yl) = O=C([C@H](CC1CCN([*:3])CC1)N[*:1])[*:2]; DOTA = O=C(O)CN1CCN(CC(=O)O)CCN(CC(=O)*)CCN(CC(=O)O)CC1; Phe(4-COOH) = N[C@@H](Cc1ccc(C(=O)O)cc1)C(=O)O; Trp(5-F) = N[C@@H](Cc1c[nH]c2ccc(F)cc12)C(=O)O; 1Nal = N[C@@H](Cc1cccc2ccccc12)C(=O)O; Ala(4-THP) = N[C@@H](CC1CCOCC1)C(=O)O; AEF = NCCOc1ccc(C[C@H](N)C(=O)O)cc1; 4Pal = N[C@@H](Cc1ccncc1)C(=O)O; Tle = CC(C)(C)[C@H](N)C(=O)O; hLeu = CC(C)CC[C@H](N)C(=O)O; NMeS = CN[C@@H](CO)C(=O)O; Nle = CCCC[C@H](N)C(=O)O; CH2 = C([*:1])[*:2]

Biological target: T1, human 4lg B7-H3 (Homo sapiens, UniProt Q5ZPR3)
T1 sequence (Q5ZPR3 29-534): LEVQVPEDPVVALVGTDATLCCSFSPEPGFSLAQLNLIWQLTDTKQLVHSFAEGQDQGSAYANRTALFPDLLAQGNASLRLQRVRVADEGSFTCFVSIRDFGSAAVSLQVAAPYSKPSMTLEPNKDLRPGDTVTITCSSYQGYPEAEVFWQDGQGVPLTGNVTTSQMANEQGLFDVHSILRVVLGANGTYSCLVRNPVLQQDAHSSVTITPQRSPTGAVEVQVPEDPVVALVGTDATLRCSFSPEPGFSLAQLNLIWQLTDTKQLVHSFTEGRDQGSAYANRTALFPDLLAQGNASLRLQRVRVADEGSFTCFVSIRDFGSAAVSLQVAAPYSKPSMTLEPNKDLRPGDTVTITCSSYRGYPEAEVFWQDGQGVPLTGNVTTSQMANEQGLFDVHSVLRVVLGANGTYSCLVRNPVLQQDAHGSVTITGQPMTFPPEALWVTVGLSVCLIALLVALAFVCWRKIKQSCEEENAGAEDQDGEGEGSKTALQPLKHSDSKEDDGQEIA
Assay: Affinity determination by surface plasmon resonance (SPR) to 4Ig B7-H3
Conditions: SPR KD—25° C., 4Ig B7-H3; 25° C. flow cell temperature

Row | Structure (SMILES) | Kd [nM]
1 | CC(=O)N[C@@H](CCC(C)C)C(=O)N[C@@H](Cc1ccc(O)cc1)C(=O)N[C@H]1CSCSC[C@@H](C(=O)N[C@@H](Cc2cccc3ccccc23)C(=O)N[C@@H](Cc2ccccc2)C(=O)N(C)[C@@H](CO)C(=O)N[C@H](CCCCNC(=O)CN2CCN(CC(=O)O)CCN(CC(=O)O)CCN(CC(=O)O)CC2)C(N)=O)NC(=O)[C@H](Cc2ccc(O)cc2)NC(=O)[C@H](C(C)C)NC(=O)[C@H](CC(=O)O)NC(=O)[C@H](Cc2ccncc2)NC(=O)[C@H](CCCCN)NC(=O)CNC(=O)[C@H](C(C)(C)C)NC1=O [compound 297, Ac-hLeu-Y-C(CH2)-Tbg-G-K-4PyA-D-V-Y-C-1Nal-F-NMeSer-dLys(DOTA)-CONH2] (Ac-[hLeu]YC[Tle]GK[4Pal]DVYC[1Nal]F[NMeS][dK](DOTA)-NH2; linker 3-11 via CH2) | 100 to 300
2 | CC(=O)N[C@@H](CCC(C)C)C(=O)N[C@@H](Cc1ccc(O)cc1)C(=O)N[C@H]1CSSC[C@@H](C(=O)N[C@@H](Cc2c[nH]c3ccc(F)cc23)C(=O)N[C@@H](Cc2ccccc2)C(=O)N2CCC[C@H]2C(=O)N[C@H](CCCCNC(=O)CN2CCN(CC(=O)O)CCN(CC(=O)O)CCN(CC(=O)O)CC2)C(=O)O)NC(=O)[C@H](Cc2ccc(O)cc2)NC(=O)[C@H](C(C)C)NC(=O)[C@H](CC(=O)O)NC(=O)[C@H](CC2CCOCC2)NC(=O)[C@H](CCCCN)NC(=O)CNC(=O)[C@H](C(C)(C)C)NC1=O [compound 304, Ac-hLeu-Y-C-Tbg-G-K-ThpA-D-V-Y-C-5FW-F-Pro-dLys(DOTA)-COOH] (Ac-[hLeu]YC[Tle]GK[Ala(4-THP)]DVYC[Trp(5-F)]FP[dK](DOTA)-OH; disulfide 3-11) | 1 to 10
3 | CC(=O)N[C@@H](CCC(C)C)C(=O)N[C@@H](Cc1ccc(O)cc1)C(=O)N[C@H]1CSSC[C@@H](C(=O)N[C@@H](Cc2c[nH]c3ccc(F)cc23)C(=O)N[C@@H](Cc2ccccc2)C(=O)N2CCC[C@H]2C(=O)O)NC(=O)[C@H](Cc2ccc(O)cc2)NC(=O)[C@H](C(C)C)NC(=O)[C@H](CC(=O)O)NC(=O)[C@H](CC2CCOCC2)NC(=O)[C@H](CCCCNC(=O)CN2CCN(CC(=O)O)CCN(CC(=O)O)CCN(CC(=O)O)CC2)NC(=O)CNC(=O)[C@H](C(C)(C)C)NC1=O [compound 305, Ac-hLeu-Y-C-Tbg-G-Lys(DOTA)-ThpA-D-V-Y-C-5FW-F-Pro-COOH] (Ac-[hLeu]YC[Tle]GK(DOTA)[Ala(4-THP)]DVYC[Trp(5-F)]FP-OH; disulfide 3-11) | 100 to 300

Results, then the compound that gave them:

Row | Kd [nM] | Structure (SMILES)
4 | < 1 | CC(=O)N[C@@H](CCC(C)C)C(=O)N[C@@H](Cc1ccc(O)cc1)C(=O)N[C@H]1CSSC[C@@H](C(=O)N[C@@H](Cc2c[nH]c3ccc(F)cc23)C(=O)N[C@@H](Cc2ccccc2)C(=O)N[C@H](C(N)=O)[C@@H](C)O)NC(=O)[C@H](Cc2ccc(O)cc2)NC(=O)[C@H](C(C)C)NC(=O)[C@H](CC(=O)O)NC(=O)[C@H](Cc2ccc(OCCNC(=O)CN3CCN(CC(=O)O)CCN(CC(=O)O)CCN(CC(=O)O)CC3)cc2)NC(=O)[C@H](CCCCN)NC(=O)CNC(=O)[C@H](C(C)C)NC1=O [compound 295, Ac-hLeu-Y-C-V-G-K-AEF(DOTA)-D-V-Y-C-5FW-F-Thr-CONH2] (Ac-[hLeu]YCVGK[AEF](DOTA)DVYC[Trp(5-F)]FT-NH2; disulfide 3-11)
5 | < 1 | CC(=O)N[C@@H](CCC(C)C)C(=O)N[C@@H](Cc1ccc(O)cc1)C(=O)N[C@H]1CSSC[C@@H](C(=O)N[C@@H](Cc2c[nH]c3ccc(F)cc23)C(=O)N[C@@H](Cc2ccccc2)C(=O)N2CCC[C@H]2C(N)=O)NC(=O)[C@H](Cc2ccc(O)cc2)NC(=O)[C@H](C(C)C)NC(=O)[C@H](CC(=O)O)NC(=O)[C@H](Cc2ccc(OCCNC(=O)CN3CCN(CC(=O)O)CCN(CC(=O)O)CCN(CC(=O)O)CC3)cc2)NC(=O)[C@H](CC2CCNCC2)NC(=O)CNC(=O)[C@H](C(C)C)NC1=O [compound 301, Ac-hLeu-Y-C-V-G-PipAla-AEF(DOTA)-D-V-Y-C-5FW-F-Pro-CONH2] (Ac-[hLeu]YCVG[Ala(piperidin-4-yl)][AEF](DOTA)DVYC[Trp(5-F)]FP-NH2; disulfide 3-11)
6 | 100 to 300 | CCCC[C@@H]1NC(=O)[C@H](C(C)C)NC(=O)[C@H](CC(=O)O)NC(=O)[C@H](Cc2ccc(C(=O)O)cc2)NC(=O)[C@H](CCCCNC(=O)CN2CCN(CC(=O)O)CCN(CC(=O)O)CCN(CC(=O)O)CC2)NC(=O)CNC(=O)[C@H](C(C)C)NC(=O)[C@@H](NC(=O)[C@H](Cc2ccc(O)cc2)NC(=O)[C@H](CCC(C)C)NC(C)=O)CSSC[C@@H](C(=O)N[C@@H](Cc2c[nH]c3ccc(F)cc23)C(=O)N[C@@H](Cc2ccccc2)C(=O)N2CCC[C@H]2C(N)=O)NC1=O [compound 302, Ac-hLeu-Y-C-V-G-Lys(DOTA)-4COOHPhe-D-V-Nle-C-5FW-F-Pro-CONH2] (Ac-[hLeu]YCVGK(DOTA)[Phe(4-COOH)]DV[Nle]C[Trp(5-F)]FP-NH2; disulfide 3-11)

Same assay, conditions: SPR KD—37° C., 4Ig B7-H3; 37° C. flow cell temperature

Row | Structure (SMILES) | Kd [nM]
7 | CC(=O)N[C@@H](CCC(C)C)C(=O)N[C@@H](Cc1ccc(O)cc1)C(=O)N[C@H]1CSSC[C@@H](C(=O)N[C@@H](Cc2c[nH]c3ccc(F)cc23)C(=O)N[C@@H](Cc2ccccc2)C(=O)N[C@H](C(N)=O)[C@@H](C)O)NC(=O)[C@H](Cc2ccc(O)cc2)NC(=O)[C@H](C(C)C)NC(=O)[C@H](CC(=O)O)NC(=O)[C@H](Cc2ccc(OCCNC(=O)CN3CCN(CC(=O)O)CCN(CC(=O)O)CCN(CC(=O)O)CC3)cc2)NC(=O)[C@H](CCCCN)NC(=O)CNC(=O)[C@H](C(C)C)NC1=O [compound 295, Ac-hLeu-Y-C-V-G-K-AEF(DOTA)-D-V-Y-C-5FW-F-Thr-CONH2] (Ac-[hLeu]YCVGK[AEF](DOTA)DVYC[Trp(5-F)]FT-NH2; disulfide 3-11) | < 1
